≈ marks a conversion by molar mass, not a printed value. Where two headings read alike, the source gives them in different places.
Columns and labels:
C. albicans = experiment: Antifungal activities, MIC/MFC; format: cell-based; conditions: C. albicans; for MIC: Table 2, 1st value in brackets, read-out: minimum inhibitory concentration (MIC)
Protocol: (§1) A similar sequence of reactions was carried out using lysine dicholamide in place of cholic acid afforded VJ-1147 of Table 2. To assess the antifungal properties of the diwalled VJ-1138 (Table 2) and 2a of Table 3, their in vitro activities were examined against four clinically relevant microbes, i.e., C. albicans, C. glabrata, C. neoformans, and C. gatti (Table 4).
(§2) Minimum inhibitory concentrations (MIC) and minimum fungicidal concentrations (MFC) are the lowest concentrations that are required for completely inhibiting growth, and killing at least 99% of the fungi, respectively.
(§3) The above molecules were tested for antifungal activity. Minimum inhibitory concentrations (MIC) and minimum fungicidal concentrations (MFC) are the lowest concentrations that are required for completely inhibiting growth, and killing at least 99% of the fungi, respectively. As is apparent from Table 4 below, there is a general trend; i.e., increased antifungal activity is observed as the length of the hydrocarbon chain that separates the facial amphiphile from the Amphotericin B moiety is decreased.

C. neoformans = experiment: Antifungal activities, MIC/MFC; format: cell-based; conditions: C. neoformans; for MIC: Table 2, 3rd value in brackets, read-out: minimum inhibitory concentration (MIC)
Protocol: as §1, §2, §3

C. gatti = experiment: Antifungal activities, MIC/MFC; format: cell-based; conditions: C. gatti; for MIC: Table 2, 4th value in brackets, read-out: minimum inhibitory concentration (MIC)
Protocol: as §1, §2, §3

C. glabrata = experiment: Antifungal activities, MIC/MFC; format: cell-based; conditions: C. glabrata; for MIC: Table 2, 2nd value in brackets, read-out: minimum inhibitory concentration (MIC)
Protocol: as §1, §2, §3

sheep red blood cells = experiment: Hemolysis measurements, release of hemoglobin; format: cell-based; conditions: up to concentrations of 500 μM; 37° C. in PBS, pH 7.4
Protocol: Sheep Red Blood Cells, 10%, in saline (Innovative Research, Novi, Mich.), were diluted in saline (pH 7.4) to a concentration of 4%, which corresponds to 4×10^7 cells/mL. All measurements were carried out in duplicate. Solutions of Amphotericin B (Sigma-Aldrich) were prepared by adding 10 μL of a DMSO solution containing a given concentration of the antibiotic (i.e., ranging from 0.2 mM to 50 mM) to 490 μL of PBS. After the resulting solution was vortex mixed for 30 seconds (s) it was incubated at 37° C. for 15 min. The resulting solution of antibiotic (500 μL) was then mixed with 500 μL of the 4% erythrocyte dispersion at 37° C. in a 1 mL plastic centrifuge vial to give a dispersion that was vortex mixed at slow rate for 5 s. After 1 h of incubation at 37° C., all samples were centrifuged (1500 g, Eppendorf centrifuge 5415C, 5000 rpm) at rt for 5 min. The supernatant (˜0.7 mL) from each plastic vial was carefully separated from sediment using a disposable glass pipette and quickly transferred to test tube. A volume of 50 μL of this supernatant was then transferred to a UV cell containing 500 μL of PBS that was maintained at 37° C. The UV spectrum was then scanned (450-650 nm) and the absorbance at 575 nm used to determine the extent of hemolysis. The extent of 0% and 100% of hemolysis was obtained from A575 values of experiments that were run in absence of AmphB (control, [A575,]o) and in presence, 100 μM AmphB ([A575]max), respectively.

Cryptococcus neoformans = experiment: Cryptococcosis mouse model, brain and lung tissue burden; format: in vivo, mice; conditions: after intravenous administration
Protocol: Cryptococcosis mice are infected via tail vein injection of 5×10^4 C. neoformans cells. Inocula are verified by quantitative culture. Animals are identified by temporary ink marking, assigned to groups of 10 mice. Test compounds will be dosed starting on the day of infection. Initial studies will employ i.v., i.p. or oral (gavage) dosing (depending on the compound and the vehicle). Antifungal compounds are given for a period of 7 days. […] On day 8, the lung and brain are evaluated by quantitative culture per gram of tissue, by weighing organs and culturing serially diluted homogenates. These tissue burden studies permit detection of drug efficacy that may not be evident by using a survival endpoint.
The mice were then sacrificed 7 days later for quantitative culture of brain and lung, with cryptococcal cells per gram tissue being expressed as logarithmic values (log 10). Mean values for each group were compared using the t-test.

CC1OC(O[C@H]2/C=C/C=C/C=C/C=C/C=C/C=C/C=C/[C@H](C)[C@@H](O)[C@@H](C)[C@H](C)OC(=O)C[C@H](O)C[C@H](O)CC[C@@H](O)[C@H](O)C[C@H](O)C[C@]3(O)C[C@H](O)[C@@H](C(=O)NCCCCCCCC(=O)N(CCCCNC(=O)CC[C@@H](C)C4CCC5C6C(OC(=O)NCCCCN)CC7CC(OC(=O)NCCCCN)CCC7(C)C6CC(OC(=O)NCCCCN)C54C)CCCNC(=O)CC[C@@H](C)C4CCC5C6C(OC(=O)NCCCCN)CC7CC(OC(=O)NCCCCN)CCC7(C)C6CC(OC(=O)NCCCCN)C54C)[C@H](C2)O3)C(O)C(N)C1O (stereo partly drawn) [VJ-1147]
MIC (C. albicans): 8 µM (≈ 21.3 µg/mL) | MIC (C. neoformans): 8 µM (≈ 21.3 µg/mL) | MIC (C. gatti): 8 µM (≈ 21.3 µg/mL) | MIC (C. glabrata): 16 µM (≈ 42.5 µg/mL)

CC1OC(O[C@H]2/C=C/C=C/C=C/C=C/C=C/C=C/C=C/[C@H](C)[C@@H](O)[C@@H](C)[C@H](C)OC(=O)C[C@H](O)C[C@H](O)CC[C@@H](O)[C@H](O)C[C@H](O)C[C@]3(O)C[C@H](O)[C@@H](C(=O)NCCCCNC(=O)C(CCCCNC(=O)CC[C@@H](C)C4CCC5C6C(O)CC7CC(OC(=O)NCC(O)C(O)C(O)C(O)CO)CCC7(C)C6CC(O)C54C)NC(=O)CC[C@@H](C)C4CCC5C6C(O)CC7CC(OC(=O)NCC(O)C(O)C(O)C(O)CO)CCC7(C)C6CC(O)C54C)[C@H](C2)O3)C(O)C(N)C1O (stereo partly drawn) [YM-13]
MIC (C. albicans): 8 µM (≈ 18.5 µg/mL) | MIC (C. neoformans): 2 µM (≈ 4.64 µg/mL) | MIC (C. gatti): 4 µM (≈ 9.27 µg/mL) | MIC (C. glabrata): 8 µM (≈ 18.5 µg/mL)

CC1OC(O[C@H]2/C=C/C=C/C=C/C=C/C=C/C=C/C=C/[C@H](C)[C@@H](O)[C@@H](C)[C@H](C)OC(=O)C[C@H](O)C[C@H](O)CC[C@@H](O)[C@H](O)C[C@H](O)C[C@]3(O)C[C@H](O)[C@@H](C(=O)NCCCCNC(=O)C(CCCCNC(=O)CC[C@@H](C)C4CCC5C6C(O)CC7CC(O)CCC7(C)C6CC(O)C54C)NC(=O)CC[C@@H](C)C4CCC5C6C(O)CC7CC(O)CCC7(C)C6CC(O)C54C)[C@H](C2)O3)C(O)C(N)C1O (stereo partly drawn) [YM-15]
MIC (C. albicans; Candida albicans): > 16 µM | MIC (C. neoformans; Cryptococcus neoformans): > 16 µM | MIC (C. gatti): 4 µM (≈ 7.61 µg/mL) | MIC (C. glabrata; Nakaseomyces glabratus): > 16 µM

CC1OC(O[C@H]2/C=C/C=C/C=C/C=C/C=C/C=C/C=C/[C@H](C)[C@@H](O)[C@@H](C)[C@H](C)OC(=O)C[C@H](O)C[C@H](O)CC[C@@H](O)[C@H](O)C[C@H](O)C[C@]3(O)C[C@H](O)[C@@H](C(=O)NCCCCNC(=O)C(CCCCNC(=O)CC[C@@H](C)C4CCC5C6C(O)CC7CC(OC(=O)NCCCCN)CCC7(C)C6CC(O)C54C)NC(=O)CC[C@@H](C)C4CCC5C6C(O)CC7CC(OC(=O)NCCCCN)CCC7(C)C6CC(O)C54C)[C@H](C2)O3)C(O)C(N)C1O (stereo partly drawn) [YM-18]
MIC (C. albicans): 2 µM (≈ 4.26 µg/mL) | MIC (C. neoformans): 2 µM (≈ 4.26 µg/mL) | MIC (C. gatti): 2 µM (≈ 4.26 µg/mL) | MIC (C. glabrata): 16 µM (≈ 34.1 µg/mL)

CC1OC(O[C@H]2/C=C/C=C/C=C/C=C/C=C/C=C/C=C/[C@H](C)[C@@H](O)[C@@H](C)[C@H](C)OC(=O)C[C@H](O)C[C@H](O)CC[C@@H](O)[C@H](O)C[C@H](O)C[C@]3(O)C[C@H](O)[C@@H](C(=O)NCCCCNC(=O)C(CCCCNC(=O)CC[C@@H](C)C4CCC5C6C(O)CC7CC(OC(=O)NCCN(C)C)CCC7(C)C6CC(O)C54C)NC(=O)CC[C@@H](C)C4CCC5C6C(O)CC7CC(OC(=O)NCCN(C)C)CCC7(C)C6CC(O)C54C)[C@H](C2)O3)C(O)C(N)C1O (stereo partly drawn) [YM-19]
MIC (C. albicans): 4 µM (≈ 8.53 µg/mL) | MIC (C. neoformans): 2 µM (≈ 4.26 µg/mL) | MIC (C. gatti): 2 µM (≈ 4.26 µg/mL) | MIC (C. glabrata): 32 µM (≈ 68.2 µg/mL)

CC1OC(O[C@H]2/C=C/C=C/C=C/C=C/C=C/C=C/C=C/[C@H](C)[C@@H](O)[C@@H](C)[C@H](C)OC(=O)C[C@H](O)C[C@H](O)CC[C@@H](O)[C@H](O)C[C@H](O)C[C@]3(O)C[C@H](O)[C@@H](C(=O)NCCOCCOCCC(=O)N(CCCCNC(=O)CC[C@@H](C)C4CCC5C6C(O)CC7CC(O)CCC7(C)C6CC(O)C54C)CCCNC(=O)CC[C@@H](C)C4CCC5C6C(O)CC7CC(O)CCC7(C)C6CC(O)C54C)[C@H](C2)O3)C(O)C(N)C1O (stereo partly drawn) [YM-42]
MIC (C. albicans; Candida albicans): > 16 µM | MIC (C. neoformans; Cryptococcus neoformans): > 16 µM | MIC (C. gatti): > 16 µM | MIC (C. glabrata; Nakaseomyces glabratus): > 16 µM

CC1OC(O[C@H]2/C=C/C=C/C=C/C=C/C=C/C=C/C=C/[C@H](C)[C@@H](O)[C@@H](C)[C@H](C)OC(=O)C[C@H](O)C[C@H](O)CC[C@@H](O)[C@H](O)C[C@H](O)C[C@]3(O)C[C@H](O)[C@@H](C(=O)NCCCCCCNC(=O)CC[C@@H](C)C4CCC5C6C(O)CC7CC(O)CCC7(C)C6CC(O)C54C)[C@H](C2)O3)C(O)C(N)C1O (stereo partly drawn) [YYM-72]
hemolytic activity (sheep red blood cells): negligible hemolytic activity

CC1OC(O[C@H]2/C=C/C=C/C=C/C=C/C=C/C=C/C=C/[C@H](C)[C@@H](O)[C@@H](C)[C@H](C)OC(=O)C[C@H](O)C[C@H](O)CC[C@@H](O)[C@H](O)C[C@H](O)C[C@]3(O)C[C@H](O)[C@@H](C(=O)NCCSSCCC(=O)N(CCCCNC(=O)C(CCCCNC(=O)CC[C@@H](C)C4CCC5C6C(OS(=O)(=O)[O-])CC7CC(OS(=O)(=O)[O-])CCC7(C)C6CC(OS(=O)(=O)[O-])C54C)NC(=O)CC[C@@H](C)C4CCC5C6C(OS(=O)(=O)[O-])CC7CC(OS(=O)(=O)[O-])CCC7(C)C6CC(OS(=O)(=O)[O-])C54C)CCCNC(=O)C(CCCCNC(=O)CC[C@@H](C)C4CCC5C6C(OS(=O)(=O)[O-])CC7CC(OS(=O)(=O)[O-])CCC7(C)C6CC(OS(=O)(=O)[O-])C54C)NC(=O)CC[C@@H](C)C4CCC5C6C(OS(=O)(=O)[O-])CC7CC(OS(=O)(=O)[O-])CCC7(C)C6CC(OS(=O)(=O)[O-])C54C)[C@H](C2)O3)C(O)C(N)C1O.[Na+].[Na+].[Na+].[Na+].[Na+].[Na+].[Na+].[Na+].[Na+].[Na+].[Na+].[Na+] (stereo partly drawn) [compound 10]
activity in brain and lung tissue (Cryptococcus neoformans): negligible activity | minimum inhibitory concentration (MIC in μM) relative to AmphB (C. albicans; 1st value in brackets): > 426 µM | minimum inhibitory concentration (MIC in μM) relative to AmphB (C. neoformans; 3rd value in brackets): > 426 µM | minimum inhibitory concentration (MIC in μM) relative to AmphB (C. gatti; 4th value in brackets): > 426 µM | minimum inhibitory concentration (MIC in μM) relative to AmphB (C. glabrata; 2nd value in brackets): > 426 µM

Source: US10322187B2, “Reduced toxicity molecular conjugates of anti-fungal agents” (Lehigh University, priority 2015, dated 2019)
